{"source": "patent US9243254B2", "about": "“Method for transforming a bacterium belonging to the streptococcus genus by natural competence” (priority 2009, dated 2016)", "key": {"[1]": {"tested_on": "LMD9-Δblp::PcomX-luxABΔshp316::P32-cat", "experiment": "Natural transformation in CDM of the shp316-deleted strain upon addition of synthetic peptides (test A)", "format": "cell-based, Streptococcus thermophilus", "conditions": "for Transformation rate / Transformation rate, With peptide addition: 1 μg/mL pGIUD0855ery; for Transformation rate, With peptide addition / Restoration of the competence defect: 1 μM synthetic peptide; for Transformation rate, With peptide addition: CDM, erythromycin selection", "protocol": "A mutant strain of LMD-9 in which the shp316 gene (which is the gene encoding the peptide Shp316) has been inactivated, such as strain LMD9-Δblp::PcomX-luxABΔshp316::P32-cat (see Example 2 for details on this strain) is pre-cultivated in M17-lactose medium. The cells of the preculture are harvested (5000 g, 9 minutes, 20° C.) and washed twice in Chemically Defined Medium (CDM, see Annex I) and then resuspended in CDM. The washed cells are diluted in fresh CDM medium to obtain an optical density of 0.05 at 600 nm, and then incubated at 37° C. After 1.5 h of incubation, the culture is separated in 2 aliquots of 10 mL and 0 or 1000 nM of peptide are added in the culture samples. Finally, each 10 mL-aliquot is divided in 2 samples of 5 mL each. One of the 2 samples receives 1 μg/mL pGIUD0855ery, a plasmid bearing an erythromycin resistance gene. The competence phenotype of the samples is studied by performing natural transformation experiments as described in example 1. The cultures are grown for 6 hours and serial dilutions are plated on the surface of M17-lactose agar medium containing or not 2.5 μg/mL of erythromycin. The transformation rate in the presence or absence of peptide is calculated for each sample; it is expressed as the ratio of erythromycin-resistant cells among the total bacterial population.\nThe experimental strategy is described below. Strain LMD9-Δblp::PcomX-luxABΔshp316::P32-cat is precultivated in M17-lactose medium. The cells of the preculture were harvested (5000 g, 9 minutes, 20° C.) and washed twice in CDM and then resuspended in CDM. The washed cells are diluted in fresh CDM to obtain an optical density of 0.05 at 600 nm, and then incubated at 37° C. After 1.5 h of incubation, in one set of experiment, 1 μM of one of the tested synthetic peptides and 1 μg/mL of pGIUD0855ery were added to the culture; whereas 1 μg/mL of pGIUD0855ery but no synthetic peptide was added to the second set of experiment. The cultures were grown during 6 hours and serial dilutions were plated on the surface of M17-lactose agar medium containing 2.5 μg/mL of erythromycin to measure transformation efficiency.\nAbility of peptides derived from Shp316 to restore the competence defect of LMD9-Δblp::PcomX-luxABΔshp316::P32-cat was further investigated focusing on the synthetic peptide PYFAGCL. Experimental work was performed as described above except that various concentrations of PYFAGCL were used: 0 nM, 1 nM, 10 nM, 100 nM, 500 nM, 1 μM, 2.5 μM and 5 μM. […]"}, "S. thermophilus LMD-9": {"tested_on": "S. thermophilus LMD-9", "experiment": "Natural transformation in CDM upon addition of synthetic peptide", "format": "cell-based, Streptococcus thermophilus", "protocol": "Similarly to the protocol used in example 4, strains LMD-9, LMG18311, CNRZ1066 and JIM8777 were pre-cultivated in M17-lactose medium. The cells of the precultures were harvested (5000 g, 9 minutes, 20° C.) and washed twice in CDM and then resuspended in CDM. The washed cells were diluted in fresh CDM medium to obtain an optical density of 0.05, and then incubated at 37° C. After 1.5 h of incubation, in one set of experiment, 1 μM of one of the tested synthetic peptides and 1 μg/mL of pGIUD0855ery DNA (in case of S. thermophilus strains), or 1 μg/ml of pG+host09 DNA (in case of S. salivarius strains) were added to the culture, whereas 1 μg/mL of DNA but no synthetic peptide was added to the second set of experiment. The cultures were grown during 6 hours and serial dilutions were plated on the surface of M17-lactose agar medium containing 2.5 μg/mL of erythromycin to measure transformation efficiency. Transformed S. thermophilus and S. salivarius cells are selected at 37° C. and 29° C., respectively.\nSimilarly to the protocol used in example 4, various S. thermophilus strains, including LMD-9, CNRZ1066 and LMG18311 used as controls, were pre-cultivated in M17-lactose medium. The cells of the precultures were harvested (5000 g, 9 minutes, 20° C.) and washed twice in CDM and then resuspended in CDM. The washed cells were diluted in fresh CDM medium to obtain an optical density of 0.05, and then incubated at 37° C. After 1.5 h of incubation, in one set of experiment, 1 μM of one of the tested synthetic peptides (LPYFAGCL) (SEQ ID NO: 85) and 1 μg/mL of pGIUD0855cat DNA were added to the culture, whereas 1 μg/mL of DNA but no synthetic peptide was added to the second set of experiment. Plasmid pGIUD0855cat is a pUC18-derivative containing a chloramphenicol resistance cassette flanked by 1-kb fragments corresponding to the upstream and downstream regions of stu0855. Upon transformation, it promotes the genetic replacement of stu0855 by P32-cat through homologous recombination (FIG. 7). The cultures were grown during 6 hours and serial dilutions were plated on the surface of M17-lactose agar medium containing 5 μg/mL of chloramphenicol to measure transformation efficiency. Transformed S. thermophilus cells were selected at 37° C.; when transformants were obtained, the transformation efficiency was calculated and is given in Table 9.\nThe overlapping PCR product was transferred through natural competence in strain LMD-9. Similarly to the protocol used in example 4, strain LMD-9 was pre-cultivated in M17-lactose medium. The cells of the precultures were harvested (5000 g, 9 minutes, 20° C.) and washed twice in CDM and then resuspended in CDM. The washed cells were diluted in fresh CDM medium to obtain an optical density of 0.05, and then incubated at 37° C. After 1.5 hour of incubation, 1 μM of LPYFAGCL (SEQ ID NO: 85) synthetic peptide and 1 μg/mL of the PCR product prepared above (joining the A, B and C fragments) were added to the culture. After the DNA uptake by the bacteria, the P32-cat cassette flanked by the two lox sites spontaneously replaces the his operon by double homologous recombination (FIG. 10). The transformation rate of the overlapping PCR was 1.1×10^−6 (160 Chloramphenicol-resistant CFU/mL). One isolate named CB15 was selected. […]"}}, "data": [{"substance": "PYFAGCL (fragment)", "values": [{"measurement": "Transformation rate", "setting": "[1]; 1 nM PYFAGCL", "result": "<10^−8"}, {"measurement": "Transformation rate", "setting": "[1]; 10 nM PYFAGCL", "result": "<10^−8"}, {"measurement": "Transformation rate", "setting": "[1]; 100 nM PYFAGCL", "result": "4.14 × 10^−7"}, {"measurement": "Transformation rate", "setting": "[1]; 500 nM PYFAGCL", "result": "1.01 × 10^−3"}, {"measurement": "Transformation rate, With peptide addition", "setting": "[1]", "result": "4.78 × 10^−3"}, {"measurement": "Restoration of the competence defect", "setting": "[1]; result in words", "result": "allowed to restore the competence defect"}, {"measurement": "Transformation rate", "setting": "[1]; 1000 nM PYFAGCL", "result": "5.15 × 10^−3"}, {"measurement": "Transformation rate", "setting": "[1]; 2500 nM PYFAGCL", "result": "3.10 × 10^−3"}, {"measurement": "Transformation rate", "setting": "[1]; 5000 nM PYFAGCL", "result": "6.38 × 10^−3"}, {"measurement": "Restoration of competence", "setting": "[1]; concentrations lower than 100 nM, result in words", "result": "did not restore the competence"}, {"measurement": "Concentration at which maximum efficiency of the peptide was recorded", "setting": "[1]; dose-response 0 nM to 5 μM", "result": 1, "unit": "µM"}, {"measurement": "Transformation rate, With peptide addition", "setting": "S. thermophilus LMD-9; 1 μM PYFAGCL, 1 μg/mL pGIUD0855ery", "result": "3.10 × 10^−3"}, {"measurement": "Increase of natural competence upon extracellular peptide addition", "setting": "S. thermophilus LMD-9; 1 μM peptide in CDM versus no peptide", "result": 10, "unit": "fold"}]}, {"substance": "LPYFAGCL (fragment) [synthetic peptide corresponding to a C-terminal fragment of Shp316]", "values": [{"measurement": "Transformation rate, With peptide addition", "setting": "[1]", "result": "3.18 × 10^−3"}, {"measurement": "Restoration of the competence defect", "setting": "[1]; result in words", "result": "allowed to restore the competence defect"}, {"measurement": "Chloramphenicol-resistant CFU obtained with the overlapping PCR", "setting": "S. thermophilus LMD-9; 1 μM LPYFAGCL, 1 μg/mL overlapping PCR product", "result": 160, "unit": "CFU/mL"}, {"measurement": "Transformation rate of the overlapping PCR", "setting": "S. thermophilus LMD-9; 1 μM LPYFAGCL, 1 μg/mL overlapping PCR product (his operon replacement by lox66-P32cat-lox71)", "result": "1.1×10^−6"}, {"measurement": "Transformation rate, With peptide addition", "setting": "S. thermophilus LMD-9; 1 μM LPYFAGCL, 1 μg/mL pUC18_stu0855::P32cat, chloramphenicol selection", "result": "5.4 × 10^−3"}]}]}
